The results in this text go back to patent publication US9550792B2, “Polycyclic substituted pyrazole kinase activity inhibitors and use thereof” (priority 2013, dated 2017).

≈ marks a conversion by molar mass, not a printed value. Like-named read-outs stand apart in the source and are kept apart here.

The test system of data set [1] is liver cancer cell line 7721. Description: Anti-tumor activity in vitro, MTT method. The format is cell-based. The conditions noted are these: 48 h, read-out: 7721 (IC50/μM).
Data set [2] concerns breast cancer cell line MCF-7. Description: Anti-tumor activity in vitro, MTT method. The conditions noted are these: Homo sapiens, MCF7, 48 h, read-out: MCF7 (IC50/μM). Background: Tetrazolium dyes change colour on reduction, which living cells bring about.
Experimental: (§2) MTT method: the dehydrogenase associated with NADP in the mitochondria of living cell is capable of reducing exogenous MTT into insoluble bluish violet crystal (Formazan), which is precipitated in the cell. […] DMSO or Triple liquid (10% SDS-5% isobutanol-0.01 mol/L HCl) is used to dissolve the crystal in the cell. The OD determined at 570 nm by a microplate reader can reflect the amount of the living cell indirectly.
(§3) The crystal is dissolved with DMSO and the detection is performed on a microplate reader.
Data set [3] has as its system lung cancer cell line A549. Description: Anti-tumor activity in vitro, MTT method. The conditions noted are these: Homo sapiens, A549, 48 h, read-out: A549 (IC50/μM).
Experimental: as §2, §3
Data set [4] relates to umbilical cord vein endothelium cell line HUVEC. Kind of data set: Anti-tumor activity in vitro, MTT method. The settings on record: Homo sapiens, 48 h, read-out: HUVEC (IC50/μM).
Experimental: as §2, §3
For data set [5], the system named is leukemia cell line NB4. Description: Anti-tumor activity in vitro, MTT method. The conditions noted are these: 48 h, read-out: NB4 (IC50/μM).
Experimental: as §2, §3
For data set [6], the system named is liver cancer cell line HEPG2. Description: Anti-tumor activity in vitro, MTT method. The conditions noted are these: Homo sapiens, HepG2, 48 h, read-out: HEPG2 (IC50/μM).
Experimental: as §2, §3
Data set [7] deals with stomach cancer cell line MGC803. Description: Anti-tumor activity in vitro, MTT method. The conditions noted are these: Homo sapiens, MGC-803, 48 h, read-out: MGC803 (IC50/μM).
Experimental: as §2, §3
The subject of data set [8] is breast cancer cell line MDA231. Kind of data set: Anti-tumor activity in vitro, MTT method. The settings on record: Homo sapiens, MDA-MB-231, 48 h, read-out: MDA231 (IC50/μM).
Experimental: as §2, §3
The test system of data set [9] is resistant breast cancer cell line MCF-7. Description: Anti-tumor activity in vitro, MTT method. The conditions noted are these: Homo sapiens, MCF7, 48 h, read-out: Resistant MCF7 (IC50/μM).
Experimental: as §2, §3
For data set [10], the system named is lung cancer cell H1299. Kind of data set: Anti-tumor activity in vitro, MTT method. The conditions noted are these: Homo sapiens, NCI-H1299, 48 h, read-out: H1299 (IC50/μM). The format is cell-based.
Data set [11] deals with colon cancer cell line HCT116. Description: Anti-tumor activity in vitro, MTT method. The format is cell-based. The settings on record: Homo sapiens, HCT-116, 48 h.
Data set [12] relates to leukemia cell line K562. Description: Anti-tumor activity in vitro, MTT method. The conditions noted are these: Homo sapiens, K562, 48 h, read-out: K562 (IC50/μM).
Experimental: as §2, §3
The test system of data set [13] is S180 grafting tumor. Kind of data set: Inhibition to S180 grafting tumor in animal. The format is in vivo, ICR mouse. The conditions noted are these: 15 mg/kg intravenously once a day, 7 administrations. How it is done:
ICR mouse was inoculated with solid tumor according to tumor grafting process (tumor piece was weighed under sterile condition, homogenized with glass tissue homogenizer, placed within a sterile container, to which was added physiological saline to prepare 1:3 cell suspension. The container was placed on ice and aspirated and the cells were mixed homogeneously before each aspiration. Each mouse was inoculated subcutaneously 0.2 mL at right fore axilla). […] The mice were administered intravenously, once a day and 7 administrations in total. The administration volume was 0.4 ml/20 g. The mice bearing tumor were sacrificed 8 days after inoculation (d8). The tumor tissue was separated and weighed. The data was analyzed with statistics method (t-test).
Dose setting: 5 groups in total.

Data set [14] relates to stomach cancer cell line BSG823. Kind of data set: Anti-tumor activity in vitro, MTT method. The settings on record: 48 h, read-out: BSG823 (IC50/μM).
Experimental: as §2, §3
The target of data set [15] is T1, Aurora A (Homo sapiens, UniProt O14965).
T1 construct: purchased
T1 sequence (O14965 1-403): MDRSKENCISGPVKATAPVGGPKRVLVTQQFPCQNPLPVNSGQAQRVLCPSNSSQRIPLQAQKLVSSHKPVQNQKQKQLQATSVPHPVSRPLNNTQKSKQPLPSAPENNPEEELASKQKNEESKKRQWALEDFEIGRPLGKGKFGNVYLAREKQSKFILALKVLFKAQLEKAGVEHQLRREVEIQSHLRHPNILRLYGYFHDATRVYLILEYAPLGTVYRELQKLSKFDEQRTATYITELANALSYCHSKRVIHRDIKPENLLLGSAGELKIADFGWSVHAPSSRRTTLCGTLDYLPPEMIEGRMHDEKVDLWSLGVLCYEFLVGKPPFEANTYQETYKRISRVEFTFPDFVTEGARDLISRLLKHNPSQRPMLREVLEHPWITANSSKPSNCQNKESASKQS
Kind of data set: Inhibitory activity to Aurora A (FRET). In kind it is biochemical. The settings on record: read-out: Aurora A inhibition % (1 × 10^−6 mol/L). The method in brief:
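FRET kinase assay of Aurora A with peptide substrate in HEPES pH 7.5, BRIJ-35, MgCl2, EDTA; 1 h reaction, then 1 h development before stop. Ex 400 nm, emission 445 nm (coumarin) and 520 nm (fluorescein); 0% and 100% phosphorylation controls set inhibition scale.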

Data set [16] addresses T2, CDK2/A (Homo sapiens, UniProt P24941).
T2 construct: purchased
Kind of data set: Inhibitory activity to CDK2 (FRET). The format is biochemical. The conditions noted are these: read-out: CDK2 inhibition % (1 × 10^−6 mol/L). Put shortly: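 FRET-based kinase assay using CDK2/cyclin A with peptide substrate in HEPES pH 7.5 buffer (MgCl2, BRIJ-35, EDTA). The kinase reaction ran 1 h, followed by development reagent for 1 h and a stop step. Inhibition calculated relative to phospho-peptide (100%) and ATP-free (0%) phosphorylation controls.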

Data set [17] has as its system Phytophthora infestans. The format is in vivo.
Data set [18] relates to Candida albicans - ATCC 36082. Description: Antifungal activity, modified broth microdilution. The format is cell-based. The conditions noted are these: Candida albicans, ATCC36082; 48 hours at 35, approximately 50% reduction of growth. How it is done: (§1) The test microorganisms are maintained on Sabourahd Dextrose Agar slant at 4[…]. Singlet suspension of each microorganism is prepared by growing the yeast overnight at 27[…] on a rotating drum in yeast-nitrogen base broth (YNB) with amino acids (Difco, Detroit, Mich.), (pH 7.0) and 0.05 morpholine propanesulphonic acid (MOPS). […] The activity of the test compound is determined using a modified broth microdilution technique. […] Well 12 serves as a growth control. […] Inoculated plate is incubated for 48 hours at 35 °C. […] Minimal Cytolytic Concentration (MCC) is determined by subculturing all wells from the 96-well plate onto a Sabourahd Dextrose Agar (SDA) plate, incubating for 1-2 days at 35 °C, and then checking viability.
For orientation: Dilution methods test growth across graded concentrations, often in twofold steps.

In data set [19] the test system is Candida tropicalis. Description: Antifungal activity, modified broth microdilution. The format is cell-based. The settings on record: Candida tropicalis; 48 hours at 35, approximately 50% reduction of growth. How it is done: as §1
For data set [20], the system named is Cryptococcus neoformans. Description: Antifungal activity, modified broth microdilution. The conditions noted are these: Cryptococcus neoformans; 48 hours at 35, approximately 50% reduction of growth. In kind it is cell-based. How it is done: as §1
For data set [21], the system named is Candida parapsilosis. Kind of data set: Antifungal activity, modified broth microdilution. In kind it is cell-based. The settings on record: Lodderomyces parapsilosis; 48 hours at 35, approximately 50% reduction of growth. The procedure:
as §1

Regarding `O=C(NC1CCNCC1)c1n[nH]cc1NC(=O)c1c(Cl)cccc1Cl` [AT-7519, reference compound], the IC50 was more than 200 µM in data set [1]; 2.04 µM in data set [2]; 53.5 µM in [3]; 5.67 µM in data set [4]; 0.62 µM in data set [5]; 53.6 µM in data set [6]. Moreover, the IC50 in [7] stood at 1.93 µM; in [8] it was 2.58 µM; in data set [9] it was 22.1 µM; in data set [10], 9.32 µM; in [11] (read-out: HCT116 (IC50/μM)), 2.63 µM; in data set [11] (read-out: HCT-116 (IC50/μM)), 21.2 µM. In addition, the IC50 in data set [12] came out at 3.24 µM; in data set [14] it was 16.7 µM. Further, the “Body weight After administration” value in [13] turned out to be 23.83 ± 3.39 g. Besides, in data set [13] (d8), the Tumor inhibition is recorded as 32.45%. The compound further yielded a Tumor weight in [13] (d8) of 0.80 ± 0.27 g. In addition, in data set [15], the inhibition at 1 µM is 38%.

Turning to `CN1CCN(Cc2ccc(NC(=O)c3n[nH]cc3Nc3nccc4ccsc34)cc2)CC1` [Compound I-29, 4-(7-thieno[2,3-c]pyridylamino)-N-(4-((4-methyl-1-piperazinyl)methyl)phenyl)-1H-3-pyrazolecarboxamide], the melting point (in general, the temperature, or range, at which the solid turns liquid) fell in the range of 274 to 276 °C. For the same compound, the IC50 in [1] turned out to be 4.95 µM. In data set [16], the inhibition at 1 µM was 76.2%. Also, the IC50 in [10] was 3.84 µM. Further, the “Severity of tomato leaf blight” value in data set [17] (0.0001 (unit not given)) is on record as “+++ (40-60% blight)”. In data set [17] (0.001 (unit not given)), the “Severity of tomato leaf blight” value is recorded as “++ (15-40% blight)”. Besides, the “Severity of tomato leaf blight” value in data set [17] (0.01 (unit not given)) is “+ (0-15% blight)”. Further, the “Severity of tomato leaf blight” value in data set [17] (0.1 (unit not given)) is “−”. Besides, the IC50 in data set [11] (read-out: HCT-116 (IC50/μM)) amounted to 0.26 µM. Moreover, 2.73 µg/mL (≈ 6.1 µM) was the least that counted as inhibitory in [18] (MIC). Besides, the MIC (usually the smallest concentration in the dilution series that meets the test's criterion for growth inhibition) in [19] stood at 4.21 µg/mL (≈ 9.41 µM). The compound also gave an MIC in [20] of 7.81 µg/mL (≈ 17.4 µM). Also, the MIC in data set [21] was determined as 6.47 µg/mL (≈ 14.5 µM). In addition, the inhibition at 1 µM in data set [15] was 64.4%.
